Data from PubChem BioAssay AID1329 (NMMLSC, 2008).
Active and inactive are the calls of the source. No rule for the calls is given here.

These compounds were tested against Induced myeloid leukemia cell differentiation protein Mcl-1 (Homo sapiens) (UniProt Q07820) (assay: modulators of Bim peptide binding to Mcl-1, dose response, biochemical, bead-based flow cytometry, multiplexed, human (AID 1329)). Settings: Bim peptide-Mcl-1 binding, MCF.
Sequence of Induced myeloid leukemia cell differentiation protein Mcl-1 (Homo sapiens) (Q07820 whole entry, looked up): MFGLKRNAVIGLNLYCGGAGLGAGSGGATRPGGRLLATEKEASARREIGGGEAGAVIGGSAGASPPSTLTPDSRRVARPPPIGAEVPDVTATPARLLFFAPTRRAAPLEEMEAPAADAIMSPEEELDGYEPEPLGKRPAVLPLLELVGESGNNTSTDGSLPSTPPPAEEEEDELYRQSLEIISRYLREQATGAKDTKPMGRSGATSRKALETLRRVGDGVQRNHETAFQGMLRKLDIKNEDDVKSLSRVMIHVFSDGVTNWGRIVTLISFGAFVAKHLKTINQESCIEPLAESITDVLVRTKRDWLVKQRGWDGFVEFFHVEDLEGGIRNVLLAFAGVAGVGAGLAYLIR
For `O=C(/C=C/c1c(F)cccc1Cl)Nc1ccncc1`, the percent span was “inactive”. `CS(=O)(=O)NN1C(=O)c2ccccc2NC1c1cccc2cccnc12` (configuration not stated) was tested, and the percent span was “inactive”. `COc1ccc2nc(-c3ccco3)c(-c3ccco3)nc2c1` was tested, and the percent span was “inactive”. `Cn1c(CCNC(=O)C2CCCCC2)nc2cc(NC(=O)c3cccs3)ccc21` was tested, and the percent span was “inactive”. `Cc1ccc(N=Cc2c(O)n(-c3ccc4c(c3)OCO4)c(=O)c3ccccc23)cc1` was tested, and the percent span was “inactive”. For `CCOC(=O)c1sc(NC(=O)c2ccncc2)c(C#N)c1C`, the percent span was “inactive”. With `Cc1ccc(-c2cc(C(=O)Nc3cc(C(=O)O)ccc3C)c3ccccc3n2)cc1` the percent span was “inactive”. In the case of `CCC(=O)OCCNc1cc(Sc2nc3ccccc3[nH]2)c2nonc2c1[N+](=O)[O-]`, the percent span is reported as “inactive”. In the case of `O=C(Oc1ccc(-c2cnc3ccccc3n2)cc1)c1cccc([N+](=O)[O-])c1`, the percent span is reported as “inactive”. For `CCOC(=O)N1CCC(c2cc(=O)n(-c3ccccc3)[nH]2)CC1`, the percent span was “inactive”. In the case of `Cc1sc2nc(C(C)C)nc(SCC(=O)N3c4ccccc4CC3C)c2c1C` (configuration not stated), the percent span is reported as “inactive”. For `Cc1ccc(-c2ccc(/C=C3\SC(N4CCOCC4)=NC3=O)o2)cc1`, the percent span was “inactive”. In the case of `COc1cc(N=c2ssnc2Cl)c(OC)cc1Cl`, the percent span is reported as “inactive”. In the case of `COc1ccc(-c2nnc(SCC(=O)Nc3nc4ccccc4s3)n2C)cc1`, the percent span is reported as “inactive”. For `Cc1ccc(C(=O)N(CCCN(C)C)c2nc3ccc(Cl)cc3s2)cc1C`, the percent span was “inactive”. `Cc1ccc(OCC(=O)NCc2ccccn2)c(Br)c1` was tested, and the percent span was “inactive”. With `COc1cc(OC)c([N+](=O)[O-])cc1/C=N/NC(=O)c1ccncc1` the percent span was “inactive”. For `Oc1ccc(C=NCC2COc3ccccc3O2)cc1` (configuration not stated), the percent span was “inactive”. For `CN(C)/C=C/C(=O)c1ccc(C(F)(F)F)cc1F`, the percent span was “inactive”. For `NC(=O)c1sc2nc3c(c(-c4ccco4)c2c1N)CCC3`, the percent span was “inactive”. `CC1=CC(=O)c2c(O)ccc(O)c2C1=O` was tested, and the percent span was “inactive”. `COC(=O)c1c(NC(=O)COc2ncnc3ccccc23)sc(C)c1C` was tested, and the percent span was “inactive”. In the case of `CCN1/C(=C\c2ccc3cc(C)ccc3[n+]2CC)Sc2cc(C)c(C)cc21`, the percent span is reported as “inactive”. `CCN(CC)c1ccc(NC(=O)COc2ccccc2C#N)cc1S(=O)(=O)Nc1ccccc1OC` was tested, and the percent span was “inactive”. For `O=C(/C=C/c1ccc(-c2ccccc2)o1)c1ccccc1`, the percent span was “inactive”. For `CCN(CC)c1ccc(NC(=O)c2ccccc2F)cc1S(=O)(=O)Nc1ccccc1OC`, the percent span was “inactive”. In the case of `Fc1ccc(/C=C2\CCCC3=C2NC(=S)NC3c2ccc(F)cc2)cc1` (configuration not stated), the percent span is reported as “inactive”. For `COP(=O)(CC(=O)O)c1ccccc1` (configuration not stated), the percent span was “inactive”. For `N#Cc1cccc(N=c2ssnc2Cl)c1`, the percent span was “inactive”. In the case of `CN1C(=O)/C(=C/c2ccc(-c3ccccc3[N+](=O)[O-])o2)SC1=Nc1ccc(Cl)c(C(=O)O)c1`, the percent span is reported as “inactive”. For `COC(=O)CCC(=O)Nc1sc(C)c(C)c1C(N)=O`, the percent span was “inactive”. With `COc1ccccc1NC1=C(NC(C)=O)C(=O)c2ccccc2C1=O` the percent span was “inactive”. `Cc1ccc(S(=O)(=O)N(C)CC(=O)N2CCc3ccccc32)cc1` was tested, and the percent span was “inactive”. `CCNCc1cc(Br)c(OCC(=O)Nc2ccccc2)c(OC)c1` was tested, and the percent span was “inactive”. With `COc1cccc2c1C(=O)C=C(C)C2=O` the percent span was “inactive”. For `Cc1cccc(N2CCN(C(=S)Nc3ccc4nc(N5CCN(C)CC5)cc(C)c4c3)CC2)c1C`, the percent span was “inactive”. In the case of `O=[N+]([O-])c1ccc2[nH]nc(-c3ccccc3)c2c1`, the percent span is reported as “inactive”. With `COc1cc(/C=C2/NC(=O)N(Cc3ccccc3F)C2=O)ccc1O` the percent span was “inactive”. In the case of `Cc1cc(C)c2c(N)c3cccc(C)c3nc2n1`, the percent span is reported as “inactive”. `C(=C\c1ccccc1)/CSc1nnc(-c2ccccn2)n1Cc1ccco1` was tested, and the percent span was “inactive”. In the case of `CCOc1ncccc1C(=O)OC(C)C(=O)Nc1ccc(CC)cc1` (configuration not stated), the percent span is reported as “inactive”. For `CCN(CC)CCN(C(=O)c1ccc(N2C(=O)CCC2=O)cc1)c1nc2cc3c(cc2s1)OCCO3`, the percent span was “inactive”. `COCCN=c1scc(-c2ccco2)n1/N=C/c1ccc(O)c(O)c1O` was tested, and the percent span was “inactive”. With `Cc1ccc(C)c(N2CCN(C(=S)Nc3ccc4nc(N5CCN(C)CC5)cc(C)c4c3)CC2)c1` the percent span was “inactive”. With `Cc1ccc(C)c(NC(=O)C(=O)NCc2ccccn2)c1` the percent span was “inactive”. `Fc1cccc(Nc2nc(-c3ccncc3)nc3ccccc23)c1` was tested, and the percent span was “inactive”. In the case of `CNc1ccc(Br)cc(C(=O)/C=C/c2ccc(OC)cc2OC)c1=O`, the percent span is reported as “inactive”. `Cc1ccc(/C=C2\CCCC3=C2NC(=S)NC3c2ccc(C)cc2)cc1` (configuration not stated) was tested, and the percent span was “inactive”. With `c1ccc(-c2nnc(OCCN3CCOCC3)c3ccccc23)cc1` the percent span was “inactive”. In the case of `O=C(Nc1n[nH]c(C(F)(F)F)n1)C1CC1`, the percent span is reported as “inactive”. With `CCOc1ccc(C2=Nn3c(nnc3-c3ccco3)SC2)cc1` the percent span was “inactive”. With `FC(F)(F)c1ccc2c(c1)C1C=CCC1C(c1ccncc1)N2` (configuration not stated) the percent span was “inactive”. `Brc1ccc2ncnc(Nc3ccc(N4CCOCC4)cc3)c2c1` was tested, and the percent span was “inactive”. In the case of `Cc1cc(-c2csc(N)n2)c(C)n1CCc1ccccc1`, the percent span is reported as “inactive”. For `COc1ccc(C(=O)NC(=S)N2CCNC(=O)C2)cc1Br`, the percent span was “inactive”. In the case of `O=C1c2ccccc2-c2onc3ccc(NCCCn4ccnc4)c1c23`, the percent span is reported as “inactive”. In the case of `Cc1cc(-c2nnc(CCC(=O)NC(C)c3cccc4ccccc34)o2)no1` (configuration not stated), the percent span is reported as “inactive”. With `CCN1CCN(c2ccc(NC(=O)c3cccc4ncccc34)cc2)CC1` the percent span was “inactive”. With `COc1cccc(-n2nnnc2SCC(=O)Nc2cccc(NC(C)=O)c2)c1` the percent span was “inactive”. In the case of `Cc1cc2nc(/C(C#N)=C/c3ccncc3)[nH]c2cc1C`, the percent span is reported as “inactive”. In the case of `CCNC(=S)Nc1ccc(OCC)cc1`, the percent span is reported as “inactive”. For `CC1(C)CC(NC(=O)COc2ccc([N+](=O)[O-])cc2)CC(C)(C)N1`, the percent span was “inactive”. For `COC(=O)CSc1ncnc2c1sc1nc(-c3ccco3)c3c(c12)CC(C)(C)OC3`, the percent span was “inactive”. In the case of `Cc1cc(-c2cc(-c3ccc(Cl)cc3)nc(N)c2C#N)co1`, the percent span is reported as “inactive”. With `COc1ccc(/C=C2\SC(=O)NC2=S)cc1OC` the percent span was “inactive”. `CN(C)S(=O)(=O)N(CC(=O)Nc1ccccc1C(F)(F)F)c1ccccc1` was tested, and the percent span was “inactive”. With `Cc1ccc(-c2cc(-c3ccc(C)o3)nc(N)c2C#N)cc1` the percent span was “inactive”. With `O=C(COC(=O)c1ccccn1)NC1CCCCC1` the percent span was “inactive”. In the case of `Cc1cc(-c2csc(N)n2)c(C)n1CCC(C)C`, the percent span is reported as “inactive”. For `CCOC(=O)c1ccc(N=c2ssnc2Cl)cc1`, the percent span was “inactive”. With `CCN(CC)c1ccc(NC(=O)c2ccccc2Br)cc1S(=O)(=O)Nc1ccccc1OC` the percent span was “inactive”. `CC(C)C(=O)NC(c1ccccc1)c1cc([N+](=O)[O-])c2cccnc2c1O` (configuration not stated) was tested, and the percent span was “inactive”. In the case of `O=C(C[n+]1ccc(-c2nnc3n2CCC3)cc1)c1ccc(Cl)c(Cl)c1`, the percent span is reported as “inactive”. With `c1ccc(-c2nc(N3CCCCC3)nc3ccccc23)cc1` the percent span was “inactive”. In the case of `Cc1nnc(NCc2n[nH]c(=O)c3ccccc23)c2ccccc12`, the percent span is reported as “inactive”. `c1cncc(-c2nnc3n2N=C(c2cccs2)CS3)c1` was tested, and the percent span was “inactive”. `COc1ccc(S(=O)(=O)NCCOc2cccc3cccnc23)cc1OC` was tested, and the percent span was “inactive”.
